According to US20260225997A1, “IONIZABLE AMINE LIPIDS” (Intellia Therapeutics, Inc., priority 2018, published 2026):

Columns and labels:
B2M = B2M editing in mouse liver by NGS after i.v. LNP delivery of Cas9 mRNA and sgRNA; assay type: in vivo; settings: for Editing (%) of B2M in mouse liver: Example 52: LNP single dose 0.1 mg/kg i.v., sgRNA G650:Cas9 mRNA 1:1, NGS; for Editing (%) of B2M in mouse liver / Editing (%) B2M liver / % Editing B2M in mouse liver: CD-1 female mice; for Editing (%) B2M liver: 6 days post-dose; for Editing (%) B2M liver / % Editing B2M in mouse liver: G650 1:1; for % Editing B2M in mouse liver: 7 days post-dose
Procedure: Preparations of various LNP compositions were prepared with amine lipids. In assays for percent liver editing in mice, Cas9 mRNA and chemically modified sgRNA were formulated in LNPs, at either a 1:1 w/w ratio or a 1:2 w/w ratio. LNPs are formulated with a composition of a given ionizable lipid (e.g. an amine lipid), DSPC, cholesterol, and PEG-2k-DMG, with a 6.0 N:P ratio.
LNPs were administered to mice by a single dose at 0.1 mg/kg, unless otherwise noted and genomic DNA was isolated for NGS analysis as described below.
CD-1 female mice, ranging from 6-10 weeks of age were used in each study. Animals were weighed and grouped according to body weight for preparing dosing solutions based on group average weight. LNPs were dosed via the lateral tail vein in a volume of 0.2 mL per animal (approximately 10 mL per kilogram body weight). The animals were periodically observed post dose for adverse effects for at least 24 hours post dose. Animals were euthanized at 6 or 7 days by exsanguination via cardiac puncture under isoflurane anesthesia. Blood was collected into serum separator tubes or into tubes containing buffered sodium citrate for plasma as described herein. For studies involving in vivo editing, liver tissue was collected from each animal for DNA extraction and analysis.
Cohorts of mice were measured for liver editing by Next-Generation Sequencing (NGS).
In brief, to quantitatively determine the efficiency of editing at the target location in the genome, genomic DNA was isolated and deep sequencing was utilized to identify the presence of insertions and deletions introduced by gene editing.
PCR primers were designed around the target site (e.g., B2M), and the genomic area of interest was amplified. Additional PCR was performed according to the manufacturer's protocols (Illumina) to add the necessary chemistry for sequencing. The amplicons were sequenced on an Illumina MiSeq instrument. The reads were aligned to the […] after eliminating those having low quality scores. The resulting files containing the reads were mapped to the reference genome (BAM files), where reads that overlapped the target region of interest were selected and the number of wild type reads versus the number of reads which contain an insertion, substitution, or deletion was calculated.
The editing percentage (e.g., the “editing efficiency” or “percent editing”) is defined as the total number of sequence reads with insertions or deletions over the total number of sequence reads, including wild type.
CD-1 female mice were dosed i.v. at 0.1 mpk or 0.3 mpk. […] For animals dosed with G282 targeting TTR, blood and the liver were collected and serum TTR and editing were measured. For animals dosed with G650 targeting B2M, liver was collected and editing was measured.

TTR = TTR editing in mouse liver by NGS after i.v. LNP delivery of Cas9 mRNA and sgRNA; assay type: in vivo; settings: for TTR Editing (%) / % Editing (TTR, liver) / Editing Mean % Indel / Editing %: CD-1 female mice; for % Editing (TTR, liver): Example 55: 0.1 mpk i.v.; for Editing %: Example 56: 0.1 mpk i.v., G282
How it was run: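 Cas9 mRNA and chemically modified sgRNA were co-formulated in LNPs made of an ionizable amine lipid, DSPC, cholesterol and PEG-2k-DMG at a 6.0 N:P ratio. CD-1 female mice aged 6-10 weeks received tail-vein injections of 0.2 mL. Liver genomic DNA was then amplified around the target site and sequenced on an Illumina MiSeq, with editing calculated as indel-containing reads over total reads.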

[1] = RNA encapsulation efficiency of LNP (Ribogreen fluorescence assay); assay type: physicochemical
How it was run: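 LNP samples diluted in 1× TE buffer with 0.2% Triton X-100 (total RNA) or without it (free RNA), stained with RiboGreen for ~10 min at room temperature in the dark, read at ex 488/em 525 nm against RNA standard curves. Encapsulation efficiency = (Total RNA − Free RNA)/Total RNA.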

[2] = Example 53 text: 0.1 and 0.3 mpk
[3] = Example 53 text: 0.1 mpk vs 0.3 mpk
[4] = Example 53: 0.1 mpk i.v., 6 days post-dose, G282 1:1
[5] = Example 53: 0.3 mpk i.v., 6 days post-dose, G282 1:1
[6] = Example 58: 0.1 mpk i.v., 6 days post-dose, G282 1:1
[7] = Example 59: 0.1 mpk i.v., 7 days post-dose, G282 1:1
[8] = Example 60: 0.1 mpk i.v., 6 days post-dose, G502 1:2
[9] = Example 62: 0.03 mpk i.v., 7 days post-dose, G282 1:2
[10] = Example 62: 0.1 mpk i.v., 7 days post-dose, G282 1:2
[11] = Example 63: 0.03 mpk i.v., 7 days post-dose, G282 1:1
[12] = Example 63: 0.1 mpk i.v., 7 days post-dose, G282 1:1
[13] = Table 3, Example 52: LNP, Cas9 mRNA + sgRNA (G650) 1:1 w/w, N:P 6.0, Compound 19 50/9/38/3, others 50/10/38.5/1.5
[14] = Table 5, Example 53: LNP with gRNA G282 (TTR), 1:1 w/w, N:P 6.0
[15] = Table 5, Example 53: LNP with gRNA G650 (B2M), 1:1 w/w, N:P 6.0
[16] = Table 10, Example 55: LNP, G282 (TTR) 1:1 w/w, N:P 6.0
[17] = Table 14, Example 58: LNP, G282 (TTR) 1:1 w/w, N:P 6.0
[18] = Table 16, Example 59: LNP, G282 (TTR) 1:1 w/w, N:P 6.0
[19] = Table 18, Example 60: LNP, G502 (TTR), sgRNA:Cas9 mRNA 1:2 w/w, N:P 6.0
[20] = Table 22, Example 62: LNP, G282 (TTR), sgRNA:Cas9 mRNA 1:2 w/w, N:P 6.0
[21] = Table 24, Example 63: LNP, G282 (TTR) 1:1 w/w, NP 6.0
[22] = Example 61: 0.1 mpk i.v., 7 days post-dose, G282 1:1
[23] = Table 12, Example 56: LNP, G282 (TTR), ratio 6.0
[24] = Table 20, Example 61: LNP, G282 (TTR) 1:1 w/w, N:P 6.0

Row | SMILES | Encapsulation (%) [1, 17] | Encapsulation (%) [1, 18] | Encapsulation (%) [1, 20] | Encapsulation (%) [1, 21] | Editing (%) of B2M in mouse liver (B2M) | Editing (%) B2M liver (B2M; Example 53: 0.1 mpk i.v.) | Editing (%) B2M liver (B2M; Example 53: 0.3 mpk i.v.) | dose response of B2M editing in liver (B2M; [3]) | TTR Editing (%) (TTR; [4]) | TTR Editing (%) (TTR; [5]) | % Editing (TTR, liver) (TTR; 7 days post-dose, G282 1:1) | Editing Mean % Indel (TTR; [6]) | Editing Mean % Indel (TTR; [7]) | Editing Mean % Indel (TTR; [8]) | Editing Mean % Indel (TTR; [9]) | Editing Mean % Indel (TTR; [10]) | Editing Mean % Indel (TTR; [11]) | Editing Mean % Indel (TTR; [12]) | Encapsulation (%) [1, 13] | Encapsulation (%) [1, 14] | also measured
1 | CCCCCCCCCOC(=O)CCCCCCCN(CCO)CCCCCCCC(OCCCCCCCC)OCCCCCCCC [Compound 1, nonyl 8-((8,8-bis(octyloxy)octyl)(2-hydroxyethyl)amino octanoate] | 97% | 96% | 97% | 98% | 36.8% | 41.0% | 62.9% | increased editing of B2M in liver significantly between the 0.1 mpk and 0.3 mpk doses | 55.4% | 59.3% | 43% | 29.5% | 41.6% | 46.3% | 8.9% | 34.2% | 10.86% | 41.10% | 98% | 97% | B2M editing in the liver compared with Compound 19 (B2M; [2]): higher B2M editing in the liver than Compound 19 at each dose; TTR editing in the liver compared with Compound 19 formulations (TTR; [2]): higher TTR editing in the liver than Compound 19 formulations at each dose; editing of TTR (TTR; Example 53 text: both the 0.1 mpk and 0.3 mpk doses): 55-60%; Encapsulation (%) [1, 15]: 98%; Encapsulation (%) [1, 16]: 97%; Encapsulation (%) [1, 19]: 97%
2 | CCCCCCCCCOC(=O)CCCCCCCN(CCO)CCCCCCCC(=O)OC(CCCCCCCC)CCCCCCCC [Compound 18, heptadecan-9-yl 8-((2-hydroxyethyl)(8-(nonyloxy)-8-oxooctyl)amino)octanoate, reference compound] | – | 98% | – | – | – | – | – | – | – | – | – | – | 41.6% | – | – | – | – | – | – | – | Editing % (TTR; 7 days post-dose): 33%; Editing Mean % Indel (TTR; [22]): 26.8%; Encapsulation (%) [1, 23]: 81%; Encapsulation (%) [1, 24]: 90%
3 | CCCCC/C=C\C/C=C\CCCCCCCC(=O)OCC(COC(=O)CCC(OCCCCCCCC)OCCCCCCCC)COC(=O)OCCCN(CC)CC (stereo not drawn) [Compound 19, 3-((4,4-bis(octyloxy)butanoyl)oxy)-2-(((((3-(diethylamino)propoxy))-carbonyl)oxy)methyl)propyl (9Z,12Z)-octadeca-9,12-dienoate, reference compound] | 99% | 98% | 99% | 98% | 12.0% | 25.5% | 43.4% | increased editing of B2M in liver significantly between the 0.1 mpk and 0.3 mpk doses | 13.8% | 45.9% | 29% | – | 29.3% | 41.4% | 7.0% | 27.1% | 30.18% | 56.02% | 98% | 99% | % Editing B2M in mouse liver (B2M; Example 54: 0.1 mpk i.v.): 13%; % Editing B2M in mouse liver (B2M; Example 54: 0.3 mpk i.v.): 44%; dose response of B2M editing in liver (B2M; Example 54 text: 0.1 mpk vs 0.3 mpk, 7 days): increased editing at the 0.3 mpk dose compared to the 0.1 mpk dose; Editing % (TTR; 7 days post-dose): 15%; Editing Mean % Indel (TTR; [22]): 35.9%; Editing Mean % Indel (TTR; Example 64: Dose 0.03 mpk (table) i.v., 7 days post-dose, G282 1:1): 5.2%; Encapsulation (%) [1, 15]: 98%; Encapsulation (%) ([1]; Table 8, Example 54: LNP, G650 (B2M) 1:1 w/w, N:P 6.0): 98%; Encapsulation (%) [1, 16]: 98%; Encapsulation (%) [1, 23]: 97%; Encapsulation (%) [1, 19]: 99%; Encapsulation (%) [1, 24]: 98%; Encapsulation (%) ([1]; Table 26, Example 64: LNP, G282 (TTR) 1:1 w/w, N:P 6.0): 98%

Now from value to compound, other results behind:

Row | Encapsulation (%) [1, 17] | Encapsulation (%) [1, 18] | Encapsulation (%) [1, 20] | Encapsulation (%) [1, 21] | SMILES | Editing (%) of B2M in mouse liver (B2M) | Editing (%) B2M liver (B2M; Example 53: 0.1 mpk i.v.) | Editing (%) B2M liver (B2M; Example 53: 0.3 mpk i.v.) | dose response of B2M editing in liver (B2M; [3]) | TTR Editing (%) (TTR; [4]) | TTR Editing (%) (TTR; [5]) | % Editing (TTR, liver) (TTR; 7 days post-dose, G282 1:1) | Editing Mean % Indel (TTR; [6]) | Editing Mean % Indel (TTR; [7]) | Editing Mean % Indel (TTR; [8]) | Editing Mean % Indel (TTR; [9]) | Editing Mean % Indel (TTR; [10]) | Editing Mean % Indel (TTR; [11]) | Editing Mean % Indel (TTR; [12]) | Encapsulation (%) [1, 13] | Encapsulation (%) [1, 14] | also measured
4 | 91% | – | 94% | – | CCCCCCCCOC(CCCCCCCN(CCO)CCCCCCCC(=O)OC(CC)CCCCCCCC)OCCCCCCCC (stereo not drawn) [Compound 17, undecan-3-yl 8-((8,8-bis(octyloxy)octyl)(2-hydroxyethyl)amino)octanoate] | – | – | – | – | – | – | – | 40.8% | – | – | 4.0% | 45.9% | – | – | – | – | –
5 | – | – | – | 97% | CCCCCCCCOC(CCCCCCCN(CCO)CCCCCCCC(=O)OC(CC)CCCCCC)OCCCCCCCC (stereo not drawn) [Compound 28, nonan-3-yl 8-((8,8-bis(octyloxy)octyl)(2-hydroxyethyl)amino)octanoate] | – | – | – | – | – | – | – | – | – | – | – | – | 20.74% | 42.36% | – | – | –
